Consider three compounds from PubChem BioAssay AID1259407 (Chemical Carcinogenesis Research Information System (CCRIS), 2018).

Activity calls are given as the source filed them. How the calls were made is not given here.

The data set concerns CCRIS mutagenicity, Ames/micronucleus/aberration tests. Kind of data set: CCRIS mutagenicity studies.
Setting [1] is: Test System: AMES SALMONELLA TYPHIMURIUM, Strain/Indicator: TA98, Metabolic Activation: HAMSTER, LIVER, S-9, AROCLOR 1254, Method: STANDARD PLATE.
[2] abbreviates: Test System: AMES SALMONELLA TYPHIMURIUM, Strain/Indicator: TA98, Metabolic Activation: NONE, Method: STANDARD PLATE.
Where [3] appears, read: Test System: AMES SALMONELLA TYPHIMURIUM, Strain/Indicator: TA98, Metabolic Activation: RAT, LIVER, S-9, AROCLOR 1254, Method: STANDARD PLATE.
Where [4] appears, read: Test System: AMES SALMONELLA TYPHIMURIUM, Strain/Indicator: TA100, Metabolic Activation: HAMSTER, LIVER, S-9, AROCLOR 1254, Method: STANDARD PLATE.
The mark [5] stands for this setting: Test System: AMES SALMONELLA TYPHIMURIUM, Strain/Indicator: TA100, Metabolic Activation: NONE, Method: STANDARD PLATE.
Setting [6] is: Test System: AMES SALMONELLA TYPHIMURIUM, Strain/Indicator: TA100, Metabolic Activation: RAT, LIVER, S-9, AROCLOR 1254, Method: STANDARD PLATE.
Setting [7] is: Test System: AMES SALMONELLA TYPHIMURIUM, Strain/Indicator: TA1537, Metabolic Activation: HAMSTER, LIVER, S-9, AROCLOR 1254, Method: STANDARD PLATE.
Where [8] appears, read: Test System: AMES SALMONELLA TYPHIMURIUM, Strain/Indicator: TA1537, Metabolic Activation: NONE, Method: STANDARD PLATE.
The mark [9] stands for this setting: Test System: AMES SALMONELLA TYPHIMURIUM, Strain/Indicator: TA1537, Metabolic Activation: RAT, LIVER, S-9, AROCLOR 1254, Method: STANDARD PLATE.
The mark [10] stands for this setting: Test System: AMES SALMONELLA TYPHIMURIUM, Strain/Indicator: TA1538, Metabolic Activation: HAMSTER, LIVER, S-9, AROCLOR 1254, Method: STANDARD PLATE.
Setting [11] is: Test System: AMES SALMONELLA TYPHIMURIUM, Strain/Indicator: TA1538, Metabolic Activation: NONE, Method: STANDARD PLATE.
[12] abbreviates: Test System: AMES SALMONELLA TYPHIMURIUM, Strain/Indicator: TA1538, Metabolic Activation: RAT, LIVER, S-9, AROCLOR 1254, Method: STANDARD PLATE.
Where [13] appears, read: Test System: MOUSE LYMPHOMA, Strain/Indicator: L5178Y (TK+/TK-), Metabolic Activation: NONE, Method: SUSPENSION/PLATE.
Where [14] appears, read: Test System: MOUSE LYMPHOMA, Strain/Indicator: L5178Y (TK+/TK-), Metabolic Activation: RAT, LIVER, S-9, AROCLOR 1254, Method: SUSPENSION/PLATE.

As to `Nc1c(Br)cc([N+](=O)[O-])cc1[N+](=O)[O-]`, the mutagenic call (Test System: AMES SALMONELLA TYPHIMURIUM, Strain/Indicator: TA98, Metabolic Activation: HAMSTER, LIVER, S-9, AROCLOR 1254 (10%), Method: PREINCUBATION) is “active; positive”; the mutagenic call under setting [1] was “active; positive”; the mutagenic call (Test System: AMES SALMONELLA TYPHIMURIUM, Strain/Indicator: TA98, Metabolic Activation: NONE, Method: PREINCUBATION) is “active; positive”; the mutagenic call under setting [2] is “active; positive”; the mutagenic call (Test System: AMES SALMONELLA TYPHIMURIUM, Strain/Indicator: TA98, Metabolic Activation: RAT, LIVER, S-9, AROCLOR 1254 (10%), Method: PREINCUBATION) is “active; positive”; the mutagenic call under setting [3] is “active; positive”. Also, the mutagenic call was “active; positive” (Test System: AMES SALMONELLA TYPHIMURIUM, Strain/Indicator: TA98, Metabolic Activation: RAT, LIVER, S-9, KANECHLOR 500, Method: PREINCUBATION); “active; positive” (Test System: AMES SALMONELLA TYPHIMURIUM, Strain/Indicator: TA100, Metabolic Activation: HAMSTER, LIVER, S-9, AROCLOR 1254 (10%), Method: PREINCUBATION); “active; positive” under setting [4]; “active; positive” (Test System: AMES SALMONELLA TYPHIMURIUM, Strain/Indicator: TA100, Metabolic Activation: NONE, Method: PREINCUBATION); “active; positive” under setting [5]; “active; positive” (Test System: AMES SALMONELLA TYPHIMURIUM, Strain/Indicator: TA100, Metabolic Activation: RAT, LIVER, S-9, AROCLOR 1254 (10%), Method: PREINCUBATION). For the same compound, the mutagenic call under setting [6] is “active; positive”; the mutagenic call (Test System: AMES SALMONELLA TYPHIMURIUM, Strain/Indicator: TA100, Metabolic Activation: RAT, LIVER, S-9, KANECHLOR 500, Method: PREINCUBATION) was “active; positive”; the mutagenic call (Test System: AMES SALMONELLA TYPHIMURIUM, Strain/Indicator: TA1535, Metabolic Activation: HAMSTER, LIVER, S-9, AROCLOR 1254 (10%), Method: PREINCUBATION) was “inactive; negative”; the mutagenic call (Test System: AMES SALMONELLA TYPHIMURIUM, Strain/Indicator: TA1535, Metabolic Activation: NONE, Method: PREINCUBATION) was “inactive; negative”; the mutagenic call (Test System: AMES SALMONELLA TYPHIMURIUM, Strain/Indicator: TA1535, Metabolic Activation: RAT, LIVER, S-9, AROCLOR 1254 (10%), Method: PREINCUBATION) was “inactive; negative”; the mutagenic call (Test System: AMES SALMONELLA TYPHIMURIUM, Strain/Indicator: TA1537, Metabolic Activation: HAMSTER, LIVER, S-9, AROCLOR 1254 (10%), Method: PREINCUBATION) was “active; positive”. Also, the mutagenic call under setting [7] was “active; positive”; the mutagenic call (Test System: AMES SALMONELLA TYPHIMURIUM, Strain/Indicator: TA1537, Metabolic Activation: NONE, Method: PREINCUBATION) is “active; positive”; the mutagenic call under setting [8] was “active; positive”; the mutagenic call (Test System: AMES SALMONELLA TYPHIMURIUM, Strain/Indicator: TA1537, Metabolic Activation: RAT, LIVER, S-9, AROCLOR 1254 (10%), Method: PREINCUBATION) is “active; positive”; the mutagenic call under setting [9] is “active; positive”; the mutagenic call under setting [10] was “active; positive”. Moreover, the mutagenic call under setting [11] was “active; positive”, the mutagenic call under setting [12] was “active; positive”, the mutagenic call under setting [13] was “active; positive. reevaluation of results: positive” and the mutagenic call under setting [14] was “active; positive. reevaluation of results: positive”.

Turning to `CCOCOCC`, the mutagenic call under setting [1] was “inactive; negative”; the mutagenic call under setting [2] was “inactive; negative”; the mutagenic call under setting [3] was “inactive; negative”; the mutagenic call under setting [4] was “inactive; negative”; the mutagenic call under setting [5] is “inactive; negative”; the mutagenic call under setting [6] was “inactive; negative”. The mutagenic call reads like this: (Test System: AMES SALMONELLA TYPHIMURIUM, Strain/Indicator: TA1535, Metabolic Activation: HAMSTER, LIVER, S-9, AROCLOR 1254, Method: STANDARD PLATE) “inactive; negative”; (Test System: AMES SALMONELLA TYPHIMURIUM, Strain/Indicator: TA1535, Metabolic Activation: NONE, Method: STANDARD PLATE) “inactive; negative”; (Test System: AMES SALMONELLA TYPHIMURIUM, Strain/Indicator: TA1535, Metabolic Activation: RAT, LIVER, S-9, AROCLOR 1254, Method: STANDARD PLATE) “inactive; negative”; under setting [7], “inactive; negative”; under setting [8], “inactive; negative”; under setting [9], “inactive; negative”. The mutagenic call was “inactive; negative” under setting [10]; “inactive; negative” under setting [11]; “inactive; negative” under setting [12]; “inactive; negative. reevaluation of results: negative” under setting [13]; “active; positive. reevaluation of results: positive” under setting [14].

For `Cc1ccc(S(=O)(=O)OC(C)C)cc1`, the mutagenic call was “active; positive” (End Point: IN VITRO MICRONUCLEUS, Test System: MOUSE LYMPHOMA L5178Y CELLS, Metabolic Activation: NONE); “active; positive” (End Point: IN VITRO MICRONUCLEUS, Test System: MOUSE LYMPHOMA L5178Y CELLS, Metabolic Activation: RAT, LIVER, S-9); “active; positive (p<0.05)” (End Point: In vitro micronucleus, Test System: Chinese Hamster Ovary (CHO-WBL) cells, Metabolic Activation: None); “active; positive” under setting [5]; “active; positive” (Test System: AMES SALMONELLA TYPHIMURIUM, Strain/Indicator: TA100, Metabolic Activation: RAT, LIVER, S-9, Method: STANDARD PLATE).
